According to patent US9573899B2, “USP7 inhibitor compounds and methods of use” (Genentech, Inc., priority 2015, dated 2017):

Each compound was assayed against T1, USP7, full-length, native C-Terminus (Homo sapiens, UniProt Q93009) (assay: Biochemical USP7 assay with Ubiquitin-Rho110 substrate, compounds pre-incubated with USP7 (USP7_Ub-Rho preInc)). Settings: compounds pre-mixed with USP7, 1 hour incubation, before substrate; read-out: USP7 Ub-Rho preInc (IC50).
T1 construct: USP7, full-length, native C-Terminus, 0.2 nM
T1 sequence (Q93009 whole entry): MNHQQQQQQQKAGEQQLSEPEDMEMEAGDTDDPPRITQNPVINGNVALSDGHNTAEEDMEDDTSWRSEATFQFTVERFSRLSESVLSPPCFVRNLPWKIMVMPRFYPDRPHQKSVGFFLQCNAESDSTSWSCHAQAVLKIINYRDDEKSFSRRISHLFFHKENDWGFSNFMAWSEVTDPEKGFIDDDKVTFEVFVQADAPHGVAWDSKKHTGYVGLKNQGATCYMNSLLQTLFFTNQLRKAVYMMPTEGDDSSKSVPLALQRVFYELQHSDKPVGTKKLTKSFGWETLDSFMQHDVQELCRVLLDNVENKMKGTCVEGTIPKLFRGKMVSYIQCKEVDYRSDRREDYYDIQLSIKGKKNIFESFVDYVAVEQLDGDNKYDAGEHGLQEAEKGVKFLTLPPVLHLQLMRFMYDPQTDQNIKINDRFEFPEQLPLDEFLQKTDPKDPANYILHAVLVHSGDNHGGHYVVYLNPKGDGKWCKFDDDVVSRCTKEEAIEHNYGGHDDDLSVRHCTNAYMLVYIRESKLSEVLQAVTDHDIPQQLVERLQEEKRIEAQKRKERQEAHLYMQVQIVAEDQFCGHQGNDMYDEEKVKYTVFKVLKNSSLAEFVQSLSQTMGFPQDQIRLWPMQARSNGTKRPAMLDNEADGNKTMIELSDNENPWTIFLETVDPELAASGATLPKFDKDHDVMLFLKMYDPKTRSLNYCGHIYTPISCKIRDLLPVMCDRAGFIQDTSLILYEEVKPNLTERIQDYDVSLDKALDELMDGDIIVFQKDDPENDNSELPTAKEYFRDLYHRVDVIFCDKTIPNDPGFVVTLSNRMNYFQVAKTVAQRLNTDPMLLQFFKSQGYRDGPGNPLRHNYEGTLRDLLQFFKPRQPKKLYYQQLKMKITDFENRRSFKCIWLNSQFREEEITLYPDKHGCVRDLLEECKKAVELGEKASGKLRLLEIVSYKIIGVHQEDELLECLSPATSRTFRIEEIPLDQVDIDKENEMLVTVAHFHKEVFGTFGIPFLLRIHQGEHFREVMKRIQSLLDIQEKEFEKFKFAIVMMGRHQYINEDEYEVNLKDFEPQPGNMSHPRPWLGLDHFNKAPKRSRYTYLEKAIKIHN
Experimental: (§1) Biochemical USP7 assays using Ubiquitin-Rho110 as a substrate: The final assay conditions were as follows: The Reaction Buffer consisted of: 50 mM Tris (pH 7.5), 0.01% (v/v) Triton X-100, 2.5 mM Dithiothreitol, 0.1% (w/v) bovine gamma globulin (Sigma cat #G5009-25G); USP7, full-length, native C-Terminus, 0.2 nM; the substrate, Ubiquitin-Rho110 (Boston Biochem cat #U-555), 1 uM. Reactions were carried out for 1 hour at room temperature, in black 20 μL volume polystyrene ProxiPlate 384 F Plus® (PerkinElmer cat #6008260).
(§2) Test compounds, including a control USP7 inhibitor (Ub-aldehyde, Boston Biochem cat #U-201) were serially diluted in DMSO, in 384 well clear V-bottom polypropylene plates (Greiner cat #781280). Compounds in DMSO were diluted 10-fold into Reaction Buffer, to achieve 3-fold the final desired concentration. The substrate, Ubiquitin-Rho110 (Boston Biochem cat #U-555), was prepared at 3 μM (3-fold the final concentration) and 5 ul was dispensed into the reaction plate. 5 ul of the compounds (diluted in Reaction Buffer at 3-fold the final concentration) were transferred to the reaction plate. 5 ul of 0.6 nM USP7 (diluted in Reaction Buffer at 3-fold the final concentration) was transferred to the reaction plate to initiate the reaction. After 1 hour incubation at room temperature the reaction was quenched by the addition of 5 ul of 400 mM acetic acid. The enzymatic product was measured by quantifying the fluorescence signal of cleaved Rhodamine-110 using excitation at 485 nm and emission at 535 nm. When pre-incubation of USP7 with compounds was required, the order of addition of reagents was modified to pre-mix the compounds with USP7 (with a 1 hour incubation period), prior to the addition of the substrate and the initiation of the reaction period. Percentage inhibition values were calculated relative to a no enzyme control and a uninhibited enzyme control. Curve fitting and IC50 calculations were carried out using Genedata Screener software.

| SMILES | IC50 [µM] |
| --- | --- |
| CCc1c(-c2ccc(O)cc2)cnc(N)c1-c1ccc(O)cc1 [Compound 2, 4-[6-amino-4-ethyl-5-(4-hydroxyphenyl)-3-pyridyl]phenol] | 4.6 |
| CCc1c(-c2ccc(O)cc2)cnc(N)c1-c1ccc(OC)cc1F [Compound 10, 4-[6-amino-4-ethyl-5-(2-fluoro-4-methoxy-phenyl)-3-pyridyl]phenol] | 13 |
| CCc1c(-c2ccc3cn[nH]c3c2)cnc(N)c1-c1ccc(O)cc1 [Compound 84, 4-[2-amino-4-ethyl-5-(1H-indazol-6-yl)-3-pyridyl]phenol] | 7.2 |
| CCc1c(-c2ccc(O)cc2)cnc(N)c1-c1ccc2[nH]ncc2c1 [Compound 87, 4-[6-amino-4-ethyl-5-(1H-indazol-5-yl)-3-pyridyl]phenol] | 2.1 |
| CCc1c(-c2cccc(N)c2)cnc(N)c1-c1ccc(O)cc1 [Compound 90, 4-[2-amino-5-(3-aminophenyl)-4-ethyl-3-pyridyl]phenol] | 19.2 |
| CCc1c(-c2ccc(N)cc2)cnc(N)c1-c1ccc(O)cc1 [Compound 91, 4-[2-amino-5-(4-aminophenyl)-4-ethyl-3-pyridyl]phenol] | 47 |
| CCc1c(-c2ccc(C(=O)NC)nc2)cnc(N)c1-c1ccc(O)cc1 [Compound 92, 5-[6-amino-4-ethyl-5-(4-hydroxyphenyl)-3-pyridyl]-N-methyl-pyridine-2-carboxamide] | 1.5 |
| CCc1c(-c2ccc(O)c(C#N)c2)cnc(N)c1-c1ccc(O)cc1 [Compound 94, 5-[6-amino-4-ethyl-5-(4-hydroxyphenyl)-3-pyridyl]-2-hydroxy-benzonitrile] | 9.6 |
| CCc1c(-c2ccc(O)c(C(N)=O)c2)cnc(N)c1-c1ccc(O)cc1 [Compound 95, 5-[6-amino-4-ethyl-5-(4-hydroxyphenyl)-3-pyridyl]-2-hydroxy-benzamide] | 106 |

Continued, values first:

| IC50 [µM] | SMILES |
| --- | --- |
| 7.1 | Nc1ncc(-c2ccc(O)cc2)c(C(F)(F)F)c1-c1ccc(O)cc1 [Compound 5, 4-[6-amino-5-(4-hydroxyphenyl)-4-(trifluoromethyl)-3-pyridyl]phenol] |
| 3.3 | CCc1c(-c2ccc(C(=O)NC)cc2)cnc(N)c1-c1ccc(O)cc1 [Compound 81, 4-[6-amino-4-ethyl-5-(4-hydroxyphenyl)-3-pyridyl]-N-methyl-benzamide] |
| 18.2 | CCc1c(-c2cccc(CN3CCOCC3)c2)cnc(N)c1-c1ccc(O)cc1 [Compound 82, 4-[2-amino-4-ethyl-5-[3-(morpholinomethyl)phenyl]-3-pyridyl]phenol] |
| 136 | CCc1c(-c2cnc(OC)nc2)cnc(N)c1-c1ccc(O)cc1 [Compound 83, 4-[2-amino-4-ethyl-5-(2-methoxypyrimidin-5-yl)-3-pyridyl]phenol] |
| 14.6 | CCc1c(-c2cccc3nn(C)cc23)cnc(N)c1-c1ccc(O)cc1 [Compound 85, 4-[2-amino-4-ethyl-5-(2-methylindazol-4-yl)-3-pyridyl]phenol] |
| 13.5 | CCc1c(-c2ccc3[nH]c(C)nc3c2)cnc(N)c1-c1ccc(O)cc1 [Compound 86, 4-[2-amino-4-ethyl-5-(2-methyl-1H-benzimidazol-5-yl)-3-pyridyl]phenol] |
| 13.8 | CCc1c(-c2ccc(O)cc2)cnc(N)c1-c1ccc2cn[nH]c2c1 [Compound 93, 4-[6-amino-4-ethyl-5-(1H-indazol-6-yl)-3-pyridyl]phenol] |

The compounds below were run against T1, USP7, full-length, native C-Terminus (assay: Biochemical USP7 assay with Ubiquitin-Rho110 substrate (USP7_Ub-Rho110 Fluor)). Settings: no pre-incubation; 1 hour reaction at room temperature; read-out: USP7 Ub-Rho110 Fluor (IC50).
Experimental: as §1, §2

| SMILES | IC50 [µM] |
| --- | --- |
| CCc1c(-c2ccc(O)cc2)cnc(N)c1-c1ccc(O)cc1 [Compound 2, 4-[6-amino-4-ethyl-5-(4-hydroxyphenyl)-3-pyridyl]phenol] | 3 |
| CCCc1c(-c2ccc(O)cc2)cnc(N)c1-c1ccc(O)cc1 [Compound 6, 4-[6-amino-5-(4-hydroxyphenyl)-4-propyl-3-pyridyl]phenol] | 35.2 |
| CCc1c(-c2ccc(O)cc2F)cnc(N)c1-c1ccc(O)cc1 [Compound 7, 4-[6-amino-4-ethyl-5-(4-hydroxyphenyl)-3-pyridyl]-3-fluoro-phenol] | 4.5 |
| CCc1c(-c2ccc(O)cc2)cnc(N)c1-c1ccc(OC)cc1F [Compound 10, 4-[6-amino-4-ethyl-5-(2-fluoro-4-methoxy-phenyl)-3-pyridyl]phenol] | 7.5 |
| CCc1c(-c2ccc(O)cc2)cnc(N)c1-c1ccc(O)cc1F [Compound 11, 4-[2-amino-4-ethyl-5-(4-hydroxyphenyl)-3-pyridyl]-3-fluoro-phenol] | > 20 |

The next lines start with the values.

| IC50 [µM] | SMILES |
| --- | --- |
| 7.7 | Cc1c(-c2ccc(O)cc2)cnc(N)c1-c1ccc(O)cc1 [Compound 1, 4-[6-amino-5-(4-hydroxyphenyl)-4-methyl-3-pyridyl]phenol] |
| 197 | CC(C)c1c(-c2ccc(O)cc2)cnc(N)c1-c1ccc(O)cc1 [Compound 3, 4-[6-amino-5-(4-hydroxyphenyl)-4-isopropyl-3-pyridyl]phenol] |
| 29.1 | COc1c(-c2ccc(O)cc2)cnc(N)c1-c1ccc(O)cc1 [Compound 4, 4-[6-amino-5-(4-hydroxyphenyl)-4-methoxy-3-pyridyl]phenol] |
| 6 | Nc1ncc(-c2ccc(O)cc2)c(C(F)(F)F)c1-c1ccc(O)cc1 [Compound 5, 4-[6-amino-5-(4-hydroxyphenyl)-4-(trifluoromethyl)-3-pyridyl]phenol] |
| 45 | CCc1c(-c2cccc(NC(C)=O)c2)cnc(N)c1-c1ccc(O)cc1 [Compound 8, N-[3-[6-amino-4-ethyl-5-(4-hydroxyphenyl)-3-pyridyl]phenyl]acetamide] |
| 56.6 | Nc1ncc(-c2ccc(O)cc2)c(C2CC2)c1-c1ccc(O)cc1 [Compound 9, 4-[6-amino-4-cyclopropyl-5-(4-hydroxyphenyl)-3-pyridyl]phenol] |
| 23.9 | CCc1c(-c2cccc(CN(C)C)c2)cnc(N)c1-c1ccc(O)cc1 [Compound 12, 4-[2-amino-5-[3-[(dimethylamino)methyl]phenyl]-4-ethyl-3-pyridyl]phenol] |

These compounds were tested against T2, USP7 (Homo sapiens, UniProt Q93009) (assay: Ub-Rho110 DUB assay, Table 2, USP7). Settings: not given.
T2 construct: USP7, full-length, native C-Terminus, 0.2 nM
T2 sequence (Q93009 whole entry): as above
Format: biochemical

| SMILES | IC50 [µM] |
| --- | --- |
| CCc1c(-c2ccc(C(=O)NC)cc2)cnc(N)c1-c1ccc(O)cc1 [Compound 81, 4-[6-amino-4-ethyl-5-(4-hydroxyphenyl)-3-pyridyl]-N-methyl-benzamide] | 1.4 |

The compounds below were run against USP7 catalytic domain (Homo sapiens, UniProt Q93009) (assay: Ub-Rho110 DUB assay, Table 2, USP7 catalytic domain). Settings: read-out: Ub-Rho110 IC50, USP7 cat.
Chain of USP7 catalytic domain (Q93009 214-521 limits assumed): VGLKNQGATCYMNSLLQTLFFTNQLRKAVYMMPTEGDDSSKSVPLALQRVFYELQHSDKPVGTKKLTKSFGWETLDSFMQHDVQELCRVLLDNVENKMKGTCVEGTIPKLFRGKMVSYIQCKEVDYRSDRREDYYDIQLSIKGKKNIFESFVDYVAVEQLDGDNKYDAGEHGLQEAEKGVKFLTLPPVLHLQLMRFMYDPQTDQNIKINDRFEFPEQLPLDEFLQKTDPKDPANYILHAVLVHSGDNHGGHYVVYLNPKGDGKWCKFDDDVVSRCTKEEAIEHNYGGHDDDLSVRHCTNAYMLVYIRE
Format: biochemical

| SMILES | IC50 [µM] |
| --- | --- |
| CCc1c(-c2ccc(C(=O)NC)cc2)cnc(N)c1-c1ccc(O)cc1 [Compound 81, 4-[6-amino-4-ethyl-5-(4-hydroxyphenyl)-3-pyridyl]-N-methyl-benzamide] | 0.53 |

These compounds were tested against T3, USP47 (Homo sapiens, UniProt Q96K76) (assay: Ub-Rho110 DUB assay, Table 2, USP47). Settings: not given.
T3 sequence (Q96K76 1-1375): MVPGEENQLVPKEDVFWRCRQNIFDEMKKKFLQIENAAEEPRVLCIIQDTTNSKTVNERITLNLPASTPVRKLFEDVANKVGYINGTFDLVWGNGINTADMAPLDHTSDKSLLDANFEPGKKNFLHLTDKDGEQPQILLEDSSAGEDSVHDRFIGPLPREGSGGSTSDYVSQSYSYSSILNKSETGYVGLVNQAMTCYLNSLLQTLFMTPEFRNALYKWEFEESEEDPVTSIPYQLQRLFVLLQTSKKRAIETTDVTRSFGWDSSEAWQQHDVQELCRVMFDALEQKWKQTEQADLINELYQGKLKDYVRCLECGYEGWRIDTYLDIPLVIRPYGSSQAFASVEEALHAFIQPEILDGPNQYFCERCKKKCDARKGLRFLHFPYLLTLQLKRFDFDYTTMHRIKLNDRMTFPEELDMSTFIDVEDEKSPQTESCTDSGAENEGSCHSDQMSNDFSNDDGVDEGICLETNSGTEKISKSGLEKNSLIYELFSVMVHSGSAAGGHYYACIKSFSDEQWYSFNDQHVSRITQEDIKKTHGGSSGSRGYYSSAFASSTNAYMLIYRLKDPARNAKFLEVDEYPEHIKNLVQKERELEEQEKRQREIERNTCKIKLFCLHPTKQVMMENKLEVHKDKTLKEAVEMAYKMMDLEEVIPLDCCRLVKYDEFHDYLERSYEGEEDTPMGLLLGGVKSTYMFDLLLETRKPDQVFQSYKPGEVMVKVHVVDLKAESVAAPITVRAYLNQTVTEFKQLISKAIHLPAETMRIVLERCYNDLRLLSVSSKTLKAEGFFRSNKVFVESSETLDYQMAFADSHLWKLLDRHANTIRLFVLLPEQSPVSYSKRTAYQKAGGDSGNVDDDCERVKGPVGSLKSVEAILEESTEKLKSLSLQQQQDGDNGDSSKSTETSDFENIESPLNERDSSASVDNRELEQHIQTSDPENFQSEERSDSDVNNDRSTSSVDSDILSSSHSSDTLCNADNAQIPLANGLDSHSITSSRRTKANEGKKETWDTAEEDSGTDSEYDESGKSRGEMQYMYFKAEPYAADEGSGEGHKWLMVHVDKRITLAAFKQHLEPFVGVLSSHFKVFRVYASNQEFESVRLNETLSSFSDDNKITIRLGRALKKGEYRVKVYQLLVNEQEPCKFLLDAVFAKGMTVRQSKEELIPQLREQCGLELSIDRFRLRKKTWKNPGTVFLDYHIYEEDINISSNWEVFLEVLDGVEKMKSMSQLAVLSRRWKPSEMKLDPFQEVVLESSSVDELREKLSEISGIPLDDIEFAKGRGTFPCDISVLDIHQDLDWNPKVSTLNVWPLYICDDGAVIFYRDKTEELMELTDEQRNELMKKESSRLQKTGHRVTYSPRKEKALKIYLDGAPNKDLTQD
Format: biochemical

| SMILES | IC50 [µM] |
| --- | --- |
| CCc1c(-c2ccc(C(=O)NC)cc2)cnc(N)c1-c1ccc(O)cc1 [Compound 81, 4-[6-amino-4-ethyl-5-(4-hydroxyphenyl)-3-pyridyl]-N-methyl-benzamide] | > 200 |

These compounds were tested on p53 and p21 in HCT116 colon cancer cell lines (assay: Western blot of p53 and p21 in isogenic HCT116 cell lines (FIG. 2A)). Settings: isogenic HCT116: wild-type, USP7 null.
Format: cell-based, Human
Experimental: In 24-well plates, 0.10-0.15×10^6 (adherent) or 0.5×10^6 (suspension) cells were treated with 15 μM or 2.5 μM compounds, respectively, for 24 h in low serum prior to lysis for Western Blot analysis.

| SMILES | stabilization of p53 and p21 (western blot) |
| --- | --- |
| CCc1c(-c2ccc(C(=O)NC)nc2)cnc(N)c1-c1ccc(O)cc1 [Compound 92, 5-[6-amino-4-ethyl-5-(4-hydroxyphenyl)-3-pyridyl]-N-methyl-pyridine-2-carboxamide] | stabilize p53 and p21 |
